{
  "source": "patent US20230001083A1",
  "about": "“ACTUATABLE DEVICE FOR PULSATILE DRUG DELIVERY” (Massachusetts Institute of Technology, priority 2019, published 2023)",
  "key": {"[1]": {"assay": "In vivo pharmacokinetics of lisinopril, pump versus subcutaneous injection", "details": "for Cmax: plasma, read-out: maximum plasma concentration (Cmax)", "experimental": "The time taken to reach the Cmax (Tmax) was 30 min in both groups. […] Drug leakage in the implanted pump was not detected during the non-actuation periods over a 28-day period."}, "[2]": {"assay": "Stability of drug formulation stored in the pump at 37° C.", "format": "physicochemical", "details": "stored in the pump at 37° C. for 4 weeks"}},
  "note": "Read-outs that look alike come from different tables or passages of the source.",
  "data": [
    {"smiles": "NCCCC[C@H](N[C@@H](CCc1ccccc1)C(=O)O)C(=O)N1CCC[C@H]1C(=O)O", "note": "[lisinopril]", "values": [
      {"measurement": "Cmax", "setting": "[1]; other: implanted pump, Pump-lisinopril group", "value": "394 ± 83.2", "unit": "ng/mL"},
      {"measurement": "Cmax", "setting": "[1]; sc, Inj-lisinopril group (subcutaneous injection)", "value": "323 ± 64.7", "unit": "ng/mL"},
      {"measurement": "area under the curve of plasma lisinopril concentration versus time (AUC)", "setting": "[1]; pump group", "value": "25335.5 ± 7640.9", "unit": "ng·min/mL"},
      {"measurement": "area under the curve of plasma lisinopril concentration versus time (AUC)", "setting": "[1]; subcutaneous injection group", "value": "24484.5 ± 5643.8", "unit": "ng·min/mL"}
    ]},
    {"smiles": "CC(C)C[C@H]1C(=O)N2CCC[C@H]2[C@]2(O)O[C@](NC(=O)[C@@H]3C=C4c5cccc6[nH]c(Br)c(c56)C[C@H]4N(C)C3)(C(C)C)C(=O)N12", "note": "[bromocriptine]", "values": [
      {"measurement": "stability of formulation in the pump", "setting": "[2]", "value": "stable without apparent denaturation"}
    ]}
  ]
}
